According to paper PMC7913621 (Molecules, 2021):

Tests used:
[1] = system: epidermoid carcinoma A-431; experiment: MTT cell viability assay, A-431; assay type: cell-based, human; conditions: A-431, MTT, 72 h, median (95% Confidence Intervals)
Experimental: (§1) The following human cell lines were used in this study: (i) epidermoid carcinoma A-431 (ATCC® CRL-1555), (ii) lung carcinoma A549 (ATCC® CCL-185), (iii) colorectal carcinoma HCT116 (ATCC® CCL-247), (iv) HCT116p53^−/−, (v) glioblastoma U-87 MG (ATCC® HTB-14), (vi) glioblastoma U-251 MG (ECACC 09063001), (vii) breast adenocarcinoma MCF7 (ATCC® HTB-22), (viii) breast adenocarcinoma MDA-MB-231 (ECACC 92020424), (ix) papillomavirus-related cervical squamous cell carcinoma SKG-IIIa (RRID:CVCL_1704), (x) cervical adenocarcinoma HeLa (ATCC® CCL-2), (xi) bone osteosarcoma U-2 OS (ATCC® HTB-96), (xii) hepatocellular carcinoma HEPG2 (ATCC® HB-8065), (xiii) larynx squamous cell carcinoma BICR 18 (ECACC 06051601), (ix) kidney HEK 293T (ATCC® CRL-11268), (xv) normal lung fibroblasts MRC-5 (ATCC® CCL-171), (xvi) normal fibroblasts BJ (ATCC® CRL-2522). The HCT116p53^−/− cell line was a kind gift from professor Bert Vogelstein (John Hopkin’s University, Baltimore, MD, USA). The remaining cell lines were purchased from ATCC (Manassas, VA, USA) or Sigma-Aldrich by Merck (Darmstadt, Germany).
(§2) Cells were cultured in minimal or Dulbecco’s modified Eagle’s or Ham’s F10 medium supplemented with 10% fetal bovine serum (Gibco by Thermo Fisher Scientific, Waltham, MA, USA) and (for BICR 18) 0.4 μg/mL hydrocortizone (Sigma-Aldrich by Merck, Darmstadt, Germany) under standard culture conditions (37 °C, 5% CO2) in a humidified incubator with an atmospheric oxygen.
(§3) The viability of cells was assayed by measuring the conversion of MTT (3-(4,5-dimethylthiazol-2-yl)-2,5-diphenyltetrazolium bromide) to the formazan (the rate of this reaction is proportional to the number of surviving cells). Cells were seeded in a 96-well plate at a density of 2500–3500 cells per well, 24 h before treatment. […] MTT stock solution (Sigma-Aldrich) was added at the final concentration 0.5 mg/mL. After 4 h of incubation at 37 °C, water-insoluble formazan was dissolved in a lysis buffer containing 20% SDS, 50% DMF, 2.5% hydrochloric acid and 2.5% acetic acid. Optical densities were measured at 570 nm using a scanning multi-well spectrophotometer ([…] Detection Platform; Beckman Coulter, Brea, CA, USA). At least three independent experiments of viability were conducted.

lung carcinoma A549 = experiment: MTT cell viability assay, A549; assay type: cell-based, human; conditions: 72 h, median (95% Confidence Intervals)
Experimental: as §1, §2, §3

[2] = system: colorectal carcinoma HCT116; experiment: MTT cell viability assay, HCT116; assay type: cell-based, human; conditions: median (95% Confidence Intervals)
Experimental: as §1, §2, §3

[3] = system: colorectal carcinoma HCT116p53^−/−; experiment: MTT cell viability assay, HCT116p53−/−; assay type: cell-based, human; conditions: 72 h, median (95% Confidence Intervals)
Experimental: as §1, §2, §3

glioblastoma U-87 MG = experiment: MTT cell viability assay, U-87 MG; assay type: cell-based, human; conditions: 72 h, median (95% Confidence Intervals)
Experimental: as §1, §2, §3

glioblastoma U-251 MG = experiment: MTT cell viability assay, U-251 MG; assay type: cell-based, human; conditions: 72 h, median (95% Confidence Intervals)
Experimental: as §1, with “The remaining cell lines were purchased from ATCC (Manassas, VA, USA) or Sigma-Aldrich by Merck (Darmstadt, Germany).” left out
The viability of cells was assayed by measuring the conversion of MTT (3-(4,5-dimethylthiazol-2-yl)-2,5-diphenyltetrazolium bromide) to the formazan (the rate of this reaction is proportional to the number of surviving cells). […] Optical densities were measured at 570 nm using a scanning multi-well spectrophotometer ([…] Detection Platform; Beckman Coulter, Brea, CA, USA). […]

[4] = system: breast adenocarcinoma MCF7; experiment: MTT cell viability assay, MCF7; assay type: cell-based, human; conditions: 72 h, median (95% Confidence Intervals)
Experimental: as §1, §2, §3

[5] = system: breast adenocarcinoma MDA-MB-231; experiment: MTT cell viability assay, MDA-MB-231; assay type: cell-based, human; conditions: MDA-MB-231, MTT, 72 h, median (95% Confidence Intervals)
Experimental: as §1, §2, §3

[6] = system: cervical squamous cell carcinoma SKG-IIIa; experiment: MTT cell viability assay, SKG-IIIa; assay type: cell-based, human; conditions: SKGIIIa, 72 h, median (95% Confidence Intervals)
Experimental: as §1, §2, §3

[7] = system: cervical adenocarcinoma HeLa; experiment: MTT cell viability assay, HeLa; assay type: cell-based, human; conditions: 72 h, median (95% Confidence Intervals)
Experimental: as §1, §2, §3

bone osteosarcoma U-2 OS = experiment: MTT cell viability assay, U-2 OS; assay type: cell-based, human; conditions: 72 h, median (95% Confidence Intervals)
Experimental: as §1, §2, §3

[8] = system: hepatocellular carcinoma HEPG2; experiment: MTT cell viability assay, HEPG2; assay type: cell-based, human; conditions: 72 h, median (95% Confidence Intervals)
Experimental: as §1, §2, §3

[9] = system: larynx squamous cell carcinoma BICR 18; experiment: MTT cell viability assay, BICR 18; assay type: cell-based, human; conditions: BICR 18, MTT, 72 h, median (95% Confidence Intervals)
Experimental: as §1, §2, §3

kidney HEK 293T = experiment: MTT cell viability assay, HEK 293T; assay type: cell-based, human; conditions: 72 h, median (95% Confidence Intervals)
Experimental: as §1, §2, §3

[10] = system: normal lung fibroblasts MRC-5; experiment: MTT cell viability assay, MRC-5; assay type: cell-based, human; conditions: MRC-5, MTT, 72 h, median (95% Confidence Intervals)
Experimental: as §1, §2, §3

normal fibroblasts BJ = experiment: MTT cell viability assay, BJ; assay type: cell-based, human; conditions: 72 h, median (95% Confidence Intervals)
Experimental: as §1, §2, §3

[11] = target: T1, recombinant human PDE5A/PDE5 protein (Homo sapiens, UniProt O76074); experiment: colorimetric PDE Activity Assay Kit (Abcam), PDE5 inhibition; assay type: biochemical; conditions: for IC50: 200 μM cGMP, 40 ng enzyme, 20 min at 37 °C, 4% DMSO, read-out: IC50 against human PDE5; for Ki: read-out: Ki against human PDE5
T1 construct: purchased Abcam
Experimental: A high concentration of cGMP substrate was used (200 μM) due to the moderate sensitivity of the aforementioned assay.
The inhibitory effect of the tested compounds was measured using colorimetric PDE Activity Assay Kit (Abcam, Cambridge, UK). This assay allows the quantification of 5′-nucleotide released in the reaction catalyzed by tested phosphodiesterase, PDE5, using the additional enzyme 5′-nucleotidase to cleave the mentioned product, and next, using modified Malachite Green assay, the phosphate is quantified. The assay was carried in a 96-well plate at a volume of 40 μL in an assay buffer, containing 40 ng recombinant human PDE5A/PDE5 protein (Abcam), 200 μM cGMP, 25 kU 5′-nucleotidase and serially diluted ligand to preserve 4% of DMSO. The reaction was initiated with the enzyme and kept going for 20 min at 37 °C. The reaction was stopped by adding 80 μL of Green Assay reagent. After incubation at room temperature for 30 min (to develop color proportional to phosphate content), the absorbance at 620 nm was measured with The SpectraMax iD3 Multi-Mode Microplate Reader (Molecular Devices, San Jose, CA, USA). Inhibitors concentrations varied in the range of 2 pM–200 μM. Each experiment was repeated 4–5 times and IC50 values were calculated by global fitting of the sigmoidal dose response equation implemented in Origin 9.0 package (www.originlab.com). For each experiment, control reaction with no enzyme added and without inhibitor was also performed.

Row | SMILES | IC50 ([1]; Homo sapiens) | IC50 ([2]; Homo sapiens, HCT-116, 72 h) | IC50 ([3]; Homo sapiens) | IC50 (glioblastoma U-87 MG; Homo sapiens) | IC50 ([4]; Homo sapiens) | IC50 ([6]; Homo sapiens) | IC50 ([7]; Homo sapiens) | IC50 (bone osteosarcoma U-2 OS; Homo sapiens, U2OS) | IC50 (kidney HEK 293T; Homo sapiens) | IC50 [11] | Ki [11] | IC50 ([5]; Homo sapiens) | IC50 ([10]; Homo sapiens, MRC5) | IC50 (normal fibroblasts BJ; Homo sapiens, Fibroblast) | IC50 (lung carcinoma A549; Homo sapiens) | IC50 ([8]; Homo sapiens) | IC50 ([9]; Homo sapiens) | other results
1 | N.N.[Cl][Pt][Cl] [Cisplatin, cisplatin, reference compound] |  |  |  |  |  |  |  |  |  |  |  |  |  |  |  |  |  | IC50 [1]: 1.51 µM; IC50 (lung carcinoma A549): 27.2 µM; IC50 ([2]; 72 h): 7.44 µM; IC50 [3]: 14.1 µM; IC50 (glioblastoma U-87 MG): 4.96 µM; IC50 (glioblastoma U-251 MG): 2.61 µM; IC50 [4]: 11 µM; IC50 [5]: 22.3 µM; IC50 [6]: 4.84 µM; IC50 [7]: 13.5 µM; IC50 (bone osteosarcoma U-2 OS): 7.55 µM; IC50 [8]: 7.8 µM; IC50 [9]: 1.69 µM; IC50 (kidney HEK 293T): 6.25 µM; IC50 [10]: 3.92 µM; IC50 (normal fibroblasts BJ): 5.58 µM
2 | CN1CC(=O)N(Cc2ccc3c(c2)OCO3)[C@H](Cc2c[nH]c3ccccc23)C1=O [Compound 6a, (R)-3-((1H-indol-3-yl)methyl)-4-(benzo[d][1,3]dioxol-5-ylmethyl)-1-methylpiperazine-2,5-dione] | 104 µM | 102 µM | 83.2 µM | 153 µM | 53.2 µM | 146 µM | 120 µM | 93.5 µM | 10.5 µM | 137 ± 47 µM | 1.4 ± 0.8 µM |  |  |  |  |  |  | 
3 | CN1CC(=O)N(Cc2ccc3c(c2)OCO3)[C@@H](Cc2c[nH]c3ccccc23)C1=O [Compound 6b, (S)-3-((1H-indol-3-yl)methyl)-4-(benzo[d][1,3]dioxol-5-ylmethyl)-1-methylpiperazine-2,5-dione] | 112 µM | 83.7 µM | 143 µM | 151 µM | 54.1 µM | 87.6 µM | 93.5 µM | 88.3 µM | 13 µM | 260 ± 210 µM | 2.6 ± 2.7 µM | 128 µM | 127 µM | 143 µM |  |  |  | 
4 | CN1CC(=O)N(Cc2cc3c(cc2Br)OCO3)[C@H](Cc2c[nH]c3ccccc23)C1=O [Compound 7a, (R)-3-((1H-indol-3-yl)methyl)-4-((6-bromobenzo[d][1,3]dioxol-5-yl)methyl)-1-methylpiperazine-2,5-dione] | 63.6 µM | 53 µM | 35.9 µM | 110 µM | 28.9 µM | 75.9 µM | 79.2 µM | 95.4 µM | 12.3 µM | 22 ± 12 µM | 0.22 ± 0.17 µM |  | 116 µM | 117 µM | 128 µM | 103 µM | 137 µM | times less effective than tadalafil as PDE5 inhibitor ([11]; compared with tadalafil, human PDE5): over 300
5 | CN1CC(=O)N(Cc2cc3c(cc2Br)OCO3)[C@@H](Cc2c[nH]c3ccccc23)C1=O [Compound 7b, (S)-3-((1H-indol-3-yl)methyl)-4-((6-bromobenzo[d][1,3]dioxol-5-yl)methyl)-1-methylpiperazine-2,5-dione] | 46.6 µM | 58.7 µM | 64.4 µM | 99 µM | 36.3 µM | 57.3 µM | 78.4 µM | 88.8 µM | 13.1 µM | 39 ± 27 µM | 0.39 ± 0.36 µM | 144 µM | 96.6 µM | 103 µM | 131 µM | 124 µM | 142 µM | 
